Assay results taken from US20240024273A1, “TOPICAL ADMINISTRATION OF 2-(DIETHYLAMINO)ETHYL 2-(4-ISOBUTYLPHENYL)PROPRIONATE FOR TREATMENT OF DISEASES” (TECHFIELDS PHARMA CO., LTD., priority 2020, published 2024).

System: Subjects with Osteoarthritis of the Knee
Experiment: Second Phase 2 study: safety (treatment-emergent adverse events)
Format: in vivo, human
Settings: Oral Ibuprofen 3 × 400 mg, N = 71
Source text: Safety assessments will be performed at each visit and will include assessment of AEs, vital signs (blood pressure, pulse rate, and oral temperature), clinical laboratories, physical examination, skin irritation, and electrocardiograms (ECGs) as indicated in the study flow chart, Table 47.
Safety assessments will include AEs, vital signs (blood pressures, pulse rate, and oral temperature), clinical laboratories, physical examination, skin irritation, and ECGs at various time points during the study as indicated in the study flow chart.
Adverse events of interest include: local skin reactions around the treated knee(s), upper stomach pain, GI bleeding, serious cardiovascular side effects (e.g., thrombotic events, myocardial infarction, or stroke), jaundice, elevated liver function tests, and nausea.
Safety analyses will be conducted on the SAS. Safety parameters will be listed and summarized using standard descriptive statistics, as appropriate. No formal statistical analyses are planned.

CC(C)Cc1ccc(C(C)C(=O)O)cc1 (stereo not shown) [Ibuprofen, 2-(4-isobutylphenyl)propionic acid, reference compound]
Infections and Infestations: number of adverse events: 32
Metabolism and Nutrition Disorders: number of adverse events: 8
Metabolism and Nutrition Disorders: percentage of subjects with adverse events: 11.3%
Metabolism and Nutrition Disorders: subjects with adverse events: 8
Tooth Infection: number of adverse events: 3
Urinary Tract Infection: number of adverse events: 11
Urinary Tract Infection: subjects with adverse events, number (percentage): 10(14.1%)
